# Measurements: ChEMBL document CHEMBL5120840, “Axial chirality and affinity at the GABAA receptor of triazolobenzodiazepines” (Bioorg Med Chem, 2022)
# Where “and” joins values, the source holds several entries; their conditions need not be identical. Identical values can stand only once.
# Legend:
# [1] = target: GABA-A receptor; anion channel; assay: Displacement of [3H]flunitrazepam from GABAA central benzodiazepine receptor in Wistar rat brain membrane without cerebellum measured after 60 mins by scintillation counting analysis; assay type: cell membranes
# [2] = target: GABA-A receptor; anion channel (Rattus norvegicus) (UniProt O09028+P15431+P18506+P18508+P19969+P20236+P23574+P23576+P28471+P28473+P30191+P62813+P63079+P63138+Q91ZM7+Q9ES14); assay: Displacement of [3H]flunitrazepam from GABAA central benzodiazepine receptor in Wistar rat brain membrane without cerebellum measured after 60 mins by scintillation counting analysis relative to control; assay type: cell membranes
Compound,IC50 [1],inhibition [2]
Cc1cc(Cl)cc2c1-n1c(C)nnc1CN=C2c1ccccc1,210 nM and 430 nM,< 50%
Cc1cc(Cl)cc2c1-n1cnnc1CN=C2c1ccccc1Cl,23 nM,
Cc1cc(Cl)cc2c1-n1c(C)nnc1CN=C2c1ccccc1Cl,10.9 nM and 34 nM,< 50%
Clc1ccc2c(c1)C(c1ccccc1Cl)=NCc1nncn1-2,1.94 nM,
